# Test results taken from paper PMC6093650, “Antidepressive and anxiolytic effects of ostruthin, a TREK-1 channel activator” (PLoS ONE, 2018).
# Key:
# Kir2.1 = molecular target: T1, Kir2.1 (Homo sapiens, UniProt P63252); assay: whole-cell patch-clamp of Kir2.1 currents in 293T cells; assay type: cell-based; conditions: n = 5, read-out: IC50 Kir 2.1
# T1 construct: expressed in transfected cells
# T1 sequence (P63252 1-427): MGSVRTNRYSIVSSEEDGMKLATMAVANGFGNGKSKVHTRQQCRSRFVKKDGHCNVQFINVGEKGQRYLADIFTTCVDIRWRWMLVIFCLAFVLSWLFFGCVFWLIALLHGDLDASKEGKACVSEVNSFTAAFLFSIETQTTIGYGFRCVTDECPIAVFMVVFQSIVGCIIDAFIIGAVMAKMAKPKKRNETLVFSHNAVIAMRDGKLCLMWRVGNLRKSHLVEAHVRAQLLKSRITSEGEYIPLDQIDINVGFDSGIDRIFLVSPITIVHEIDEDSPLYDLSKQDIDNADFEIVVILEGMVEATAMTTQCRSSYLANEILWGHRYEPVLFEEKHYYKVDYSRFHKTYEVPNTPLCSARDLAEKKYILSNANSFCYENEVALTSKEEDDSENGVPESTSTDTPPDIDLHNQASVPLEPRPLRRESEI
# Excerpt: (§1) For recordings of K^+ channel currents, we prepared stable cell lines for TREK-1, TWIK-related acid-sensitive K^+ channel (TASK-1), strongly inwardly rectifying K^+ channel (Kir2.1), and human ether-a-go-go-related gene (HERG-1) channels and transiently expressed other channels in 293T cells using a calcium-phosphate transfection method. For the establishment of the stable lines, we used lentiviral vectors, and the preparation methods for the lentiviral vectors were described in our previous report. TR-1 cells, which stably expressed TREK-1 channel and were grown on a small cover glass (3 × 18 mm), were placed in a recording chamber with an internal volume of 200 μl. Whole-cell currents were recorded in Tyrode solution using an Axopatch 200B amplifier (Axon Instruments, Foster City, CA) at 25°C. Tyrode solution contained (in mM): NaCl 140, KCl 5.4, NaH2PO4 0.33, CaCl2 2, MgCl2 1, HEPES 5, and glucose 5.5 (pH 7.4 adjusted with NaOH). […] Perfusion (100 μl/min) was continued to maintain the water level throughout recordings. pH and osmotic pressure of solutions were measured with a pH meter (Horiba, Kyoto, Japan) and a freezing point osmometer (Knauer, Berlin, Germany), respectively. […]
# TASK-3 = molecular target: T2, TASK-3 (Homo sapiens, UniProt Q9NPC2); assay: whole-cell patch-clamp of TASK-3 currents in 293T cells; assay type: cell-based
# T2 construct: expressed in transfected cells; host or cells: 293T (transient, calcium-phosphate transfection)
# T2 sequence (Q9NPC2 whole entry, species assumed): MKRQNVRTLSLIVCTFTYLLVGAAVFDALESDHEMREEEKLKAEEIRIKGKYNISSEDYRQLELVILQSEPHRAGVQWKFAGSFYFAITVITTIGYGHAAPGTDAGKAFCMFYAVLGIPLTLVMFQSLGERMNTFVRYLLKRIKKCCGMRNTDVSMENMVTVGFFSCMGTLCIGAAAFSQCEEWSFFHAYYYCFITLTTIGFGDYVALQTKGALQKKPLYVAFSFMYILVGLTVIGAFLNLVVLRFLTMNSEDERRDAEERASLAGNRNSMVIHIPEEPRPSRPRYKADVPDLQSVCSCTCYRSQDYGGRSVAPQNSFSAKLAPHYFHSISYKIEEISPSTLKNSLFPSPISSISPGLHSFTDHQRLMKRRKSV
# Excerpt: as §1
# [1] = tested on: general locomotor activity of mice; assay: voluntary wheel running test; assay type: in vivo; conditions: 0, 2, 5, 20 mg/kg i.p., after elevated plus maze, 5 min, n = 7
# Excerpt: Male ICR mice (n = 317 in total) aged 5 weeks and weighing 32 ± 2 g were purchased from Shimizu Laboratory Supplies (Kyoto, Japan). For the social defeat stress test, we used 28 C57BL/6J mice (5 weeks old, Shimizu Laboratory Supplies) and 30 ICR mice (7–8 weeks old, Charles River Labs Japan, Yokohama, Kanagawa, Japan). Mice were maintained for at least 1 week prior to experiments. Animals were kept in groups in plastic cages. They had free access to food and water, and were kept in a 12-h light/dark cycle (08:00–20:00). Experiments were carried out between 10:00 and 18:00 in a quiet and air-conditioned experimental room, in which mice were habituated for at least 30 min before each experiment. Animal experiments were performed in accordance with the guidelines of the Physiological Society of Japan and were approved by the Committees on Animal Experiments at Kansai Medical University and the Kurashiki University of Science and the Arts. Ostruthin was initially dissolved in DMSO at higher concentration (100 mM) and then diluted in phosphate-buffered saline (PBS). […]
# Immediately after the elevated plus maze test, the same mouse was subjected to the voluntary wheel running test. The number of rotations was measured for 5 min using an activity monitoring running wheel (Muromachi Kikai, Tokyo, Japan).
# [2] = tested on: mice anxiety-like behavior; assay: elevated plus maze; assay type: in vivo
# Excerpt: Male ICR mice (n = 317 in total) aged 5 weeks and weighing 32 ± 2 g were purchased from Shimizu Laboratory Supplies (Kyoto, Japan). For the social defeat stress test, we used 28 C57BL/6J mice (5 weeks old, Shimizu Laboratory Supplies) and 30 ICR mice (7–8 weeks old, Charles River Labs Japan, Yokohama, Kanagawa, Japan). Mice were maintained for at least 1 week prior to experiments. Animals were kept in groups in plastic cages. They had free access to food and water, and were kept in a 12-h light/dark cycle (08:00–20:00). Experiments were carried out between 10:00 and 18:00 in a quiet and air-conditioned experimental room, in which mice were habituated for at least 30 min before each experiment. Animal experiments were performed in accordance with the guidelines of the Physiological Society of Japan and were approved by the Committees on Animal Experiments at Kansai Medical University and the Kurashiki University of Science and the Arts. Ostruthin was initially dissolved in DMSO at higher concentration (100 mM) and then diluted in phosphate-buffered saline (PBS). The diluted solution was mixed vigorously for more than 10 min before the experiments, and an equal volume of DMSO was added to PBS as a control. PBS and ostruthin were administered intraperitoneally 30 min before mice behavioral tests (0.01 ml/g body weight). Each animal was used only once, except for the wheel running test, which was carried out immediately after elevated plus maze.
# The elevated plus maze apparatus consisted of four arms set in a cross pattern from a neutral central square (6 × 6 cm). Two opposite arms were delimited by vertical walls (closed arms, 30 × 15 × 6 cm), whereas the other two arms had unprotected edges (open arms, 30 × 6 cm). The maze was elevated 40 cm above the floor. At the beginning of each 5 min test session, a mouse was placed in the central neutral area, facing one of the open arms. The total number of the entries to open arms and time spent in the open arms were measured. After removal of the animal, the apparatus was cleaned and wiped.
# KCNQ-3 = KCNQ-3 (Homo sapiens, UniProt O43525); assay: whole-cell patch-clamp of KCNQ-3 currents in 293T cells; assay type: cell-based; conditions: 100 μM (data not shown)
# Excerpt: as §1
# HERG-1 = molecular target: T3, HERG-1 (Homo sapiens, UniProt Q12809); assay: whole-cell patch-clamp of HERG-1 tail currents in 293T cells; assay type: cell-based; conditions: outward tail current, n = 5
# T3 construct: expressed in transfected cells
# T3 sequence (Q12809 whole entry): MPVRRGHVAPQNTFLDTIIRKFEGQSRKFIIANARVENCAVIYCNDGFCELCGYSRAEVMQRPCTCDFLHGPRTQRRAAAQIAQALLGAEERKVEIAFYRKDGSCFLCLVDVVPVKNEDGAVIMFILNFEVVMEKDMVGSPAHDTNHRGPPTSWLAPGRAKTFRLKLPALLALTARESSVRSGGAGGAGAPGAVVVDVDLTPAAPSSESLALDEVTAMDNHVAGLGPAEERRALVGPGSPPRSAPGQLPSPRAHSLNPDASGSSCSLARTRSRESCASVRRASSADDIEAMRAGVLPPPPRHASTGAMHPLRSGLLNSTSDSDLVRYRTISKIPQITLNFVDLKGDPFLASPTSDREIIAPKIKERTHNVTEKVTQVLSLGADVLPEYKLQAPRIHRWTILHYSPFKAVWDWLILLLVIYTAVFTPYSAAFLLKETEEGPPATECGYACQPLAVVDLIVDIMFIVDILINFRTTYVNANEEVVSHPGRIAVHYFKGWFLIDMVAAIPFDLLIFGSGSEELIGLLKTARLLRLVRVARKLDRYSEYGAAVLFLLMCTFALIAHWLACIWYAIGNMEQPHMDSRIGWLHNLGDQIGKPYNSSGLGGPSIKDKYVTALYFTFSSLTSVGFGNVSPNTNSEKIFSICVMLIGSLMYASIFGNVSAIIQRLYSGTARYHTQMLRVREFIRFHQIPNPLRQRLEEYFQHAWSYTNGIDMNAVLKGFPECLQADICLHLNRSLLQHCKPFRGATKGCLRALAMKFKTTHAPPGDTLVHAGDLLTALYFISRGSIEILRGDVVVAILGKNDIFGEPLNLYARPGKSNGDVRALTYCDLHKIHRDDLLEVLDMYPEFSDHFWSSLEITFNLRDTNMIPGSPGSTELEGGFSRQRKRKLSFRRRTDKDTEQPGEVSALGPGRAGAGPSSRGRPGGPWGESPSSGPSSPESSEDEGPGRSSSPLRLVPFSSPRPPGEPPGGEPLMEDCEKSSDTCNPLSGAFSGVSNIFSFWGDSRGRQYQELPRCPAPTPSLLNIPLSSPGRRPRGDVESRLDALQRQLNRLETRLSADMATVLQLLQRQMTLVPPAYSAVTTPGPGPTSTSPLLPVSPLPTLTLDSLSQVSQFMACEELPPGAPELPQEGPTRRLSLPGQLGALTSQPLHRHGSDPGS
# Excerpt: as §1
# Kv1.4 = Kv1.4 (Homo sapiens, UniProt P22459); assay: whole-cell patch-clamp of Kv1.4 currents in 293T cells; assay type: cell-based; conditions: n = 5
# Kv1.4, sequence (P22459 whole entry): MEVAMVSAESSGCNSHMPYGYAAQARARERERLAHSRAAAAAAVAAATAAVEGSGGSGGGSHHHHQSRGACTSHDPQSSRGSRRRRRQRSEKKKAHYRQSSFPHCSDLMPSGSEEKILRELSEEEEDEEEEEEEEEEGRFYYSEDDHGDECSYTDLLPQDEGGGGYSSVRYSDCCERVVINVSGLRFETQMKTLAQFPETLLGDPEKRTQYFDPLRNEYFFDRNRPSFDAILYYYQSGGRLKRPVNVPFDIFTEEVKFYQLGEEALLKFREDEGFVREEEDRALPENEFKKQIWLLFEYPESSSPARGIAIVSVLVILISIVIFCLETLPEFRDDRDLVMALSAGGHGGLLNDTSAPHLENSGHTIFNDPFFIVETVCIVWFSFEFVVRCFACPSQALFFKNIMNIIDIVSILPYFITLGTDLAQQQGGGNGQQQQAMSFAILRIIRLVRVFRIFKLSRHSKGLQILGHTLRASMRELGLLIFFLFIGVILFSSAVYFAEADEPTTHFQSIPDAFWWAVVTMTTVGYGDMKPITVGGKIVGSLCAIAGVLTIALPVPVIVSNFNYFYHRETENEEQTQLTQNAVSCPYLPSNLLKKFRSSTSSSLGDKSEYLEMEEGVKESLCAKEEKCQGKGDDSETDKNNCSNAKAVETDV
# Excerpt: as §1
compound,measurement,setting,value
CC(C)=CCC/C(C)=C/Cc1cc2ccc(=O)oc2cc1O [ostruthin],IC50,Kir2.1,198 µM
same,IC50,TASK-3,227 µM
same,number of wheel rotations (voluntary motility),[1],no effect at any dose
same,number of entries to the open arm,"[2]; 20 mg/kg i.p., vs 5 mg/kg",decreased
same,time spent on the open arm,"[2]; 20 mg/kg i.p., vs 5 mg/kg",decreased
same,number of entries to the open arm,"[2]; 2 and 5 mg/kg i.p. 30 min before test, vs 0 mg/kg",increased
same,number of entries to the open arm,"[2]; amlodipine experiment: single compound vs PBS, ostruthin 5 mg/kg or amlodipine 10 mg/kg, n = 6",increased
same,number of entries to the open arm,"[2]; ostruthin 5 mg/kg co-administered with amlodipine 10 mg/kg, vs amlodipine, n = 6",did not increase
same,time spent in the open arm,"[2]; ostruthin 5 mg/kg in the absence of amlodipine, vs PBS, n = 6",increased
same,increase of time spent in the open arm,"[2]; ostruthin 5 mg/kg in the presence of amlodipine 10 mg/kg, n = 6",did not
same,effect on KCNQ-3 channels,KCNQ-3,no effect
same,IC50,HERG-1,216 µM
same,IC50,Kv1.4,269 µM
